From patent US7713994B2 (Wyeth LLC, priority 2005, dated 2010)
Where two headings read alike, the source gives them in different places. One block for each compound: values may come before it.

How the values were obtained:
[1] = system: BT474; assay: Cytotoxicity assay (SRB), BT474; type: cell-based
Outline: (§1)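 Percentage survival is derived from SRB absorbance (540 nm) versus untreated cells. Exposures were 3 days, except 6 days for BT474, at 37 °C and 7% CO2.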

[2] = system: LoVo; assay: Cytotoxicity assay (SRB), LoVo; type: cell-based; conditions: Homo sapiens, LoVo, 72 h, LoVo cells, SRB, read-out: In Vitro Cellular Activity IC50 LOVO
Outline: as §1

[3] = molecular target: T1, cyclin E/CDK2 enzyme (Homo sapiens, UniProt P24941); assay: CDK2 ELISA kinase assay (phospho-Rb ser 795 detection); type: biochemical; conditions: In Vitro Enzyme Assays, read-out: CDK2 IC50
T1 construct: made in house; host or cells: Sf9 insect cells, recombinant baculovirus
Outline: (§2)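 Wells were coated overnight with GST-Rb C-terminal fragment, then blocked. Compound (10 ug/ml final) and cyclin/CDK enzyme from baculovirus-infected Sf9 cells with 200 μM ATP reacted 1 h at 30° C. Ser795 phosphorylation was detected by ELISA at 450 nm.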

[4] = molecular target: T2, cyclin B/CDK1 enzyme (Homo sapiens, UniProt P06493); assay: CDK1 ELISA kinase assay (phospho-Rb ser 795 detection); type: biochemical; conditions: In Vitro Enzyme Assays, read-out: CDK1 IC50
T2 construct: purchased New England BioLabs; host or cells: Sf9 insect cells, recombinant baculovirus
Outline: as §2

[5] = molecular target: T3, cyclin D1/cdk 4 enzyme (Homo sapiens, UniProt P11802); assay: CDK4 ELISA kinase assay (phospho-Rb ser 795 detection); type: biochemical; conditions: In Vitro Enzyme Assays, 200 μM ATP, read-out: CDK4 IC50
T3 construct: made in house; host or cells: Sf9 insect cells, recombinant baculovirus
Outline: as §2

[6] = system: MCF-7; assay: Cytotoxicity assay (SRB), MCF-7; type: cell-based; conditions: Homo sapiens, MCF7, 72 h, MCF-7 cells, SRB, read-out: In Vitro Cellular Activity IC50 MCF-7
Outline: as §1

[7] = system: HCT-116; assay: Cytotoxicity assay (SRB), HCT-116; type: cell-based; conditions: Homo sapiens, HCT-116, 72 h, HCT116 cells, SRB, read-out: In Vitro Cellular Activity IC50 HCT116
Outline: as §1

[8] = Homo sapiens, BT-474, 144 h, BT474 cells, SRB, 6 days; read-out: In Vitro Cellular Activity IC50 BT474
[9] = Homo sapiens, BT-474, 144 h, BT474 cells, 6 days, SRB; read-out: In Vitro Cellular Activity IC50 BT474

T2 sequence (P06493 whole entry): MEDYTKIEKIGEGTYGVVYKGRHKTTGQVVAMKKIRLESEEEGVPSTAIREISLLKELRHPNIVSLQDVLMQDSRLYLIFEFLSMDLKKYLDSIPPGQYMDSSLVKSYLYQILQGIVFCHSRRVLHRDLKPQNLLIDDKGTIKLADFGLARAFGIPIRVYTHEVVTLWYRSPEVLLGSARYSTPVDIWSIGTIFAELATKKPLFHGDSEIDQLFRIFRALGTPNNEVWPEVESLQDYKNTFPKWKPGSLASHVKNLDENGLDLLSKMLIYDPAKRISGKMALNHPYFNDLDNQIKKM
T2 sequence (P14635 whole entry partner): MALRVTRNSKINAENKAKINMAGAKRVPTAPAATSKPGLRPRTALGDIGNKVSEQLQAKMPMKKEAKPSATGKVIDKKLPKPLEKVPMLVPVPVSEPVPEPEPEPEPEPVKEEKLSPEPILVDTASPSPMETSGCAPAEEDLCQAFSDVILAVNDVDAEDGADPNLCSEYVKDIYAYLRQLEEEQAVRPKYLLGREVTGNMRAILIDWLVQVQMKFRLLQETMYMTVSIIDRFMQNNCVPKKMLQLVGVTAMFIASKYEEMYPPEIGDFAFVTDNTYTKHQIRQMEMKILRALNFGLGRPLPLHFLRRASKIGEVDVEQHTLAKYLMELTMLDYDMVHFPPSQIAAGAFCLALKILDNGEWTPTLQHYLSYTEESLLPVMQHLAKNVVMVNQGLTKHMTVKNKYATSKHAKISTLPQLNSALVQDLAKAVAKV
T3 sequence (P11802 whole entry, species assumed): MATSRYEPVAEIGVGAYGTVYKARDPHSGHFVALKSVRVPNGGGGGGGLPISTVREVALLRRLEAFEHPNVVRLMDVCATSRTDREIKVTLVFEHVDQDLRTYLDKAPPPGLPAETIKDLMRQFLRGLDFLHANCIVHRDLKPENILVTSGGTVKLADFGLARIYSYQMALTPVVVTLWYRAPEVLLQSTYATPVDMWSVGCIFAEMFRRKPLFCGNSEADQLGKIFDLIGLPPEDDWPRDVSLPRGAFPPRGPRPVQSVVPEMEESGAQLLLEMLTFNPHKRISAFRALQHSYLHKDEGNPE
T3 sequence (P24385 whole entry partner, species assumed): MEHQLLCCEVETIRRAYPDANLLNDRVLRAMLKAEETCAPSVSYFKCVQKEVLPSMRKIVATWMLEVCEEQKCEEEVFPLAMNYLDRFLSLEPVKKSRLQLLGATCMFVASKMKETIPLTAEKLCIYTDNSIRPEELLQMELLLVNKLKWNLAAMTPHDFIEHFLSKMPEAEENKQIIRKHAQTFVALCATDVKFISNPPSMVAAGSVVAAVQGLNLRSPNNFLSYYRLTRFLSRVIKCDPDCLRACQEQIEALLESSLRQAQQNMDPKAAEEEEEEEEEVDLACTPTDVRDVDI

SMILES: O=C1NC(=O)c2ccc(-c3ccsc3)cc2/C1=C/Nc1cc(F)c(N2CCN3CCC[C@H]3C2)c(F)c1 [Example 371, (4Z)-4-[({3,5-Difluoro-4-[(8aS)-hexahydropyrrolo[1,2-a]pyrazin-2(1H)-yl]phenyl}amino)-methylene]-6-thien-3-ylisoquinoline-1,3(2H,4H)-dione]
IC50 [1, 8]: 3.1 µM | IC50 ([2]; three days): 2.8 µM | IC50 [3]: > 50 µM | IC50 [4]: > 50 µM | IC50 [5]: 0.1 µM | IC50 ([6]; three days): 4.1 µM | IC50 ([7]; three days): 1.1 µM | melting point: 190 to 191 °C

SMILES: C[C@@H]1CN(c2ccc(N/C=C3\C(=O)NC(=O)c4ccc(-c5ccoc5)cc43)cc2)C[C@H](C)N1C(=O)CN(C)C [Example 373, (4Z)-4-[({4-[(3R,5S)-4-(N,N-Dimethylglycyl)-3,5-dimethylpiperazin-1-yl]phenyl}amino)methylene]-6-(3-furyl)isoquinoline-1,3(2H,4H)-dione]
IC50 [1, 8]: 3.5 µM | IC50 ([2]; three days): 1.9 µM | IC50 [3]: > 50 µM | IC50 [4]: > 50 µM | IC50 [5]: 0.01 µM | IC50 ([6]; three days): 2.1 µM | IC50 ([7]; three days): 0.75 µM | melting point: 191 to 192 °C

SMILES: C[C@@H]1CN(c2ccc(N/C=C3\C(=O)NC(=O)c4ccc(-c5ccsc5)cc43)cc2)C[C@H](C)N1C(=O)CN(C)C [Example 380, (4Z)-4-[({4-[(3R,5S)-4-(N,N-Dimethylglycyl)-3,5-dimethylpiperazin-1-yl]phenyl}amino)methylene]-6-thien-3-ylisoquinoline-1,3(2H,4H)-dione]
IC50 [1, 8]: 9.1 µM | IC50 ([2]; three days): 8.2 µM | IC50 [3]: > 50 µM | IC50 [4]: 42.5 µM | IC50 [5]: 0.1 µM | IC50 ([6]; three days): 3.4 µM | IC50 ([7]; three days): 0.5 µM | melting point: 198 to 199 °C

SMILES: O=C1NC(=O)c2ccc(-c3ccsc3)cc2/C1=C/Nc1ccc(N2CCN3CCC[C@H]3C2)c(F)c1 [Example 382, (4Z)-4-[({3-Fluoro-4-[(8aS)-hexahydropyrrolo[1,2-a]pyrazin-2(1H)-yl]phenyl}amino)-methylene]-6-thien-3-ylisoquinoline-1,3(2H,4H)-dione]
IC50 [1, 8]: 2.7 µM | IC50 ([2]; three days): 3.7 µM | IC50 [3]: > 50 µM | IC50 [4]: > 50 µM | IC50 [5]: 0.29 µM | IC50 ([6]; three days): 2.7 µM | IC50 ([7]; three days): 1.2 µM | melting point: 208 to 209 °C

SMILES: COC1CCN(Cc2ccc(N/C=C3\C(=O)NC(=O)c4ccc(I)cc43)cc2)CC1 [Example 394, (4Z)-6-Iodo-4-[({4-[(4-methoxypiperidin-1-yl)methyl]phenyl}amino)methylene]isoquinoline-1,3(2H,4H)-dione]
IC50 [1, 9]: 4.03 µM | IC50 ([2]; 3 days): 3.7 µM | IC50 [3]: > 50 µM | IC50 [4]: > 50 µM | IC50 [5]: 0.21 µM | IC50 ([6]; 3 days): 2.6 µM | IC50 ([7]; 3 days): 3.7 µM | melting point: 199 to 200 °C

SMILES: COC1CCN(Cc2ccc(N/C=C3\C(=O)NC(=O)c4ccc(-c5ccc(F)cc5)cc43)cc2)CC1 [Example 395, (4Z)-6-(4-Fluorophenyl)-4-[({4-[(4-methoxypiperidin-1-yl)methyl]phenyl}amino)methylene]isoquinoline-1,3(2H,4H)-dione]
IC50 [1, 9]: 1.49 µM | IC50 ([2]; 3 days): 2.8 µM | IC50 [3]: > 50 µM | IC50 [4]: > 50 µM | IC50 [5]: 0.14 µM | IC50 ([6]; 3 days): 1.4 µM | IC50 ([7]; 3 days): 2.3 µM | melting point: 188 to 189 °C

SMILES: O=C1NC(=O)c2ccc(Br)cc2/C1=C/Nc1ccc(N2CCC(N3CCCC3)CC2)c(F)c1 [Example 405, (4Z)-6-Bromo-4-({[3-fluoro-4-(4-pyrrolidin-1-ylpiperidin-1-yl)phenyl]amino}-methylene)-isoquinoline-1,3(2H,4H)-dione]
IC50 [1, 9]: 3.1 µM | IC50 ([2]; 3 days): 2 µM | IC50 [3]: > 50 µM | IC50 [4]: > 50 µM | IC50 [5]: 1.8 µM | IC50 ([6]; 3 days): 5.6 µM | IC50 ([7]; 3 days): 1.7 µM | melting point: 204 to 205 °C

More lines, main results first:

IC50 [3]: 0.26 µM | IC50 [4]: 1.5 µM | IC50 [5]: 0.02 µM | melting point: 185 to 186 °C
SMILES: CN(C)C/C=C/C(=O)Nc1ccc(CN/C=C2\C(=O)NC(=O)c3ccc(I)cc32)cc1O [Example 359, (2E)-4-(Dimethylamino)-N-[2-hydroxy-4-({[(Z)-(6-iodo-1,3-dioxo-2,3-dihydroisoquinolin-4(1H)-ylidene)methyl]amino}methyl)phenyl]but-2-enamide]
IC50 [1, 8]: 0.12 µM | IC50 ([2]; three days): 0.34 µM | IC50 ([6]; three days): 0.4 µM | IC50 ([7]; three days): 0.23 µM

IC50 [3]: 1.9 µM | IC50 [4]: 31.7 µM | IC50 [5]: 0.12 µM | melting point: 236 to 237 °C
SMILES: CCCNc1ccc(CN/C=C2\C(=O)NC(=O)c3ccc(I)cc32)cc1O [Example 366, (4Z)-4-({[3-Hydroxy-4-(propylamino)benzyl]amino}methylene)-6-iodoisoquinoline-1,3(2H,4H)-dione]
IC50 [1, 8]: 3.8 µM | IC50 ([2]; three days): 2.8 µM | IC50 ([6]; three days): 6.9 µM | IC50 ([7]; three days): 3.3 µM

IC50 [3]: > 50 µM | IC50 [4]: 42.5 µM | IC50 [5]: 21.1 µM | melting point: 190 to 191 °C
SMILES: O=C1NC(=O)c2ccc(Br)cc2/C1=C/Nc1cc(F)c(N2CCN3CCC[C@H]3C2)c(F)c1 [Example 370, (4Z)-6-Bromo-4-[({3,5-difluoro-4-[(8aS)-hexahydropyrrolo[1,2-a]pyrazin-2(1H)-yl]phenyl}amino)methylene]isoquinoline-1,3(2H,4H)-dione]
IC50 [1, 8]: 6.3 µM | IC50 ([2]; three days): 6.4 µM | IC50 ([6]; three days): 6.7 µM | IC50 ([7]; three days): 4.2 µM

IC50 [3]: 20.2 µM | IC50 [4]: > 50 µM | IC50 [5]: > 50 µM | melting point: 224 to 225 °C
SMILES: C[C@@H]1CN(c2ccc(N/C=C3\C(=O)NC(=O)c4ccc(Br)cc43)cc2C(F)(F)F)C[C@H](C)N1 [Example 372, (4Z)-6-Bromo-4-({[4-[(3R,5S)-3,5-dimethylpiperazin-1-yl]-3-(trifluoromethyl)phenyl]amino}methylene)isoquinoline-1,3(2H,4H)-dione]
IC50 [1, 8]: 2.9 µM | IC50 ([2]; three days): 1.4 µM | IC50 ([6]; three days): 3.2 µM | IC50 ([7]; three days): 1.2 µM

IC50 [3]: 3.1 µM | IC50 [4]: > 50 µM | IC50 [5]: 13.2 µM | melting point: 187 to 188 °C
SMILES: C[C@@H]1CN(c2c(F)cc(N/C=C3\C(=O)NC(=O)c4ccc(Br)cc43)cc2F)C[C@H](C)N1 [Example 381, (4Z)-6-Bromo-4-[({4-[(3R,5S)-3,5-dimethylpiperazin-1-yl]-3,5-difluorophenyl}amino)-methylene]isoquinoline-1,3(2H,4H)-dione]
IC50 [1, 8]: 3 µM | IC50 ([2]; three days): 3.4 µM | IC50 ([6]; three days): 4.3 µM | IC50 ([7]; three days): 2 µM

IC50 [3]: 25.9 µM | IC50 [4]: 14.4 µM | IC50 [5]: 0.45 µM | melting point: 195 to 196 °C
SMILES: C[C@@H]1CN(c2c(F)cc(N/C=C3\C(=O)NC(=O)c4ccc(-c5ccsc5)cc43)cc2F)C[C@H](C)N1 [Example 383, (4Z)-4-[({4-[(3R,5S)-3,5-Dimethylpiperazin-1-yl]-3,5-difluorophenyl}amino)methylene]-6-thien-3-ylisoquinoline-1,3(2H,4H)-dione]
IC50 [1, 8]: 1.3 µM | IC50 ([2]; three days): 2.6 µM | IC50 ([6]; three days): 2.1 µM | IC50 ([7]; three days): 0.84 µM
